Measured values from paper PMC4245091, “Novel Virtual Screening Approach for the Discovery of Human Tyrosinase Inhibitors” (PLoS ONE, 2014).

Target: T1, Mushroom tyrosinase
T1 construct: gene PPO1; commercial native mushroom preparation (Sigma-Aldrich)
Experiment: L-tyrosine to dopachrome, absorbance at […] nm
Type: biochemical
Settings: L-tyrosine 0.2 mg/ml; 2 µg/ml enzyme; 100 mM phosphate pH 6.8; 5% ethanol; 25 °C; 30 min

- IC50: 8 µM
SMILES: CC(C)c1ccc(C(=O)CC(Sc2ccc(Cl)cc2)C(=O)O)cc1 (stereo not shown) [Lead1]
